One assay concerns the target T1, human TLR7 (Homo sapiens, UniProt Q9NYK1).
T1 construct: host or cells: HEK-Blue hTLR7 (HEK293-derived reporter cells)
T1 sequence (Q9NYK1 27-1049): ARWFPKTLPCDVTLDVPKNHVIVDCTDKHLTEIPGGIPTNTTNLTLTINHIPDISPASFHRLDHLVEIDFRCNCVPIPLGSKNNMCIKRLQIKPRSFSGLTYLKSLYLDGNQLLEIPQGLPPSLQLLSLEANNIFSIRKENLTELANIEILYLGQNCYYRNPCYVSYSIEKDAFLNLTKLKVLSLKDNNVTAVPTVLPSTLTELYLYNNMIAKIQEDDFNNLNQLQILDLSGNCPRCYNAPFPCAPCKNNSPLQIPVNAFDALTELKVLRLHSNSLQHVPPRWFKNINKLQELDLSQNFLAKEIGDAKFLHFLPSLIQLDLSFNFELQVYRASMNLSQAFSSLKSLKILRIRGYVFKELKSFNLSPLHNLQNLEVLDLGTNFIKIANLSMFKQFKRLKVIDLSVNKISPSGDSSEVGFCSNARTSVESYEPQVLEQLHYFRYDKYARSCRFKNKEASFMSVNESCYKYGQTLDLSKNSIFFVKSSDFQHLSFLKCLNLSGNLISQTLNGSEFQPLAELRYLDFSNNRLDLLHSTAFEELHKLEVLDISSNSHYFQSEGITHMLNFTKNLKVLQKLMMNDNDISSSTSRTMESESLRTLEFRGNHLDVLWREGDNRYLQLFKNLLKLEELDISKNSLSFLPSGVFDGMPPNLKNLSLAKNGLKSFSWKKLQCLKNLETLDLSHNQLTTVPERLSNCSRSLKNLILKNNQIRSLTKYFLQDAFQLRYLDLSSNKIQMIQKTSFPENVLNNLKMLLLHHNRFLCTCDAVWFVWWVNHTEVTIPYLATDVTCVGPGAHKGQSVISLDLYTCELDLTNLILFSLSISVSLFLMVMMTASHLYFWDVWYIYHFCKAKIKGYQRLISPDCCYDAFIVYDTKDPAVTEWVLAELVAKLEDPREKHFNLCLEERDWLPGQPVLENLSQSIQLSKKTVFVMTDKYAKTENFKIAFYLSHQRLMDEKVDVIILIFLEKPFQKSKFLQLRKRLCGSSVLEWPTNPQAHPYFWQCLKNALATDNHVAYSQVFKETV
Briefly: HEK-Blue hTLR7 SEAP reporter gene agonist assay. Type of assay: cell-based. The following applies: HEK-Blue hTLR7 cells, 16 to 22 hours incubation. On the procedure:
(§1) HEK-Blue™ cells that stably express human TLR7 or TLR8 are used to evaluate the agonistic activity of the compounds on TLR7 or TLR8, which is determined by the induction of the expression of SEAP reporter gene under the control of minimum IFN-β promoter fusion to 5×NF-κB and AP-1 binding sites. The assay is conducted as below:
(§2) HEK-Blue™ hTLR7 (Invivogen, 80,000 cells per well) or HEK-Blue™ hTLR8 (Invivogen, 60,000 cells per well) were added to the 96-well cell culture plate, followed by adding of the test compound. The final concentration of the test compound in the medium ranged from […], and was incubated for 16 to 22 hours. According to the manufacturer's instructions, the HEK-Blue assay reagent Quanti-blue (Invivogen) was used to measure SEAP levels in cell media. Optical density at 650 nm (OD650) was measured by Neo2 multifunction plate reader (Bio-tek). The half effective concentration (EC50) was calculated using GraphPad Prism.
A general note: In a reporter assay the amount or activity of a reporter protein is the signal.

A further assay has as its target T2, human TLR8 (Homo sapiens, UniProt Q9NR97).
T2 construct: host or cells: HEK-Blue hTLR8 (HEK293-derived reporter cells)
T2 sequence (Q9NR97 27-1041): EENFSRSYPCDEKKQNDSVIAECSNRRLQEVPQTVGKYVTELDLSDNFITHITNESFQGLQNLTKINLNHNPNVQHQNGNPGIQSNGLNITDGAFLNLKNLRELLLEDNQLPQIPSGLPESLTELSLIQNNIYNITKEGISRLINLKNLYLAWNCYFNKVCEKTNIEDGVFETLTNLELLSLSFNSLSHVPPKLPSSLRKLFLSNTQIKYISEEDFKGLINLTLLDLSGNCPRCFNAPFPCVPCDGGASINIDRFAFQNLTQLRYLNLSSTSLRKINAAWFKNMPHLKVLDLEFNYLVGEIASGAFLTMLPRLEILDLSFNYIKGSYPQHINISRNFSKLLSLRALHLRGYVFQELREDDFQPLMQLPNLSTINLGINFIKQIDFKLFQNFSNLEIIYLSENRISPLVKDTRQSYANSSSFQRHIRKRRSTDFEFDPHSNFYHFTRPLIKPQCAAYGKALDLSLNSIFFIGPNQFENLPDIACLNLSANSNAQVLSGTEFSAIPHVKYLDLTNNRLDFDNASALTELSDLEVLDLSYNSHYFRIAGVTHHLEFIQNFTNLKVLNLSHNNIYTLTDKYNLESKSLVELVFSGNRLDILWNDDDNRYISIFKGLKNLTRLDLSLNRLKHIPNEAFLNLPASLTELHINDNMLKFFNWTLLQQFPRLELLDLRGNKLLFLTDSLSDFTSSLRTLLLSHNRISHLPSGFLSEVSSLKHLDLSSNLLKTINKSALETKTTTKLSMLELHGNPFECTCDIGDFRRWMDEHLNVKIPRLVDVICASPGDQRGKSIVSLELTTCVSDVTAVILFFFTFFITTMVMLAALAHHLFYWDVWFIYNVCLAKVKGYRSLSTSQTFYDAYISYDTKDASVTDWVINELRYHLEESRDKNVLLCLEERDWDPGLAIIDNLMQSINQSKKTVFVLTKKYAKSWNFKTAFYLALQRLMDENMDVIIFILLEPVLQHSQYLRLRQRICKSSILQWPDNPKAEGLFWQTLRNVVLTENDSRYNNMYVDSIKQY
Briefly: HEK-Blue hTLR8 SEAP reporter gene agonist assay. Type of assay: cell-based. The following applies: HEK-Blue hTLR8 cells, 16 to 22 hours incubation. On the procedure:
as §1, §2

Structures are written as SMILES.

Turning to `CCCC(CCOC(=O)C(F)(F)F)Nc1nc(N)nc2ccn(Cc3ccc(CN4CCCC4)cc3)c(=O)c12` (stereo not shown) [Compound I-96, 3-((2-amino-5-oxo-6-(4-(pyrrolidin-1-ylmethyl)benzyl)-5,6-dihydropyrido[4,3-d]pyrimidin-4-yl)amino)hexyl 2,2,2-trifluoroacetate], the values for the concentration giving a half-maximal response (EC50) on human TLR7 and at human TLR8 were 50 nM and 31 nM, respectively.
For `CCC[C@@H](C)Nc1nc(N)nc2ccn(Cc3ccc(C(=O)N4CCN(C(C)C)CC4)cc3OC)c(=O)c12` [Compound I-183, (R)-2-amino-6-(4-(4-isopropylpiperazine-1-carbonyl)-2-methoxybenzyl)-4-(pentan-2-ylamino)pyrido[4,3-d]pyrimidin-5(6H)-one], in that order: 91 nM and 83 nM.
For `CCCCNc1nc(N)nc2ccn(Cc3ccc(CN4CCCC4)cc3)c(=O)c12` [Compound I-1, 2-amino-4-(butylamino)-6-(4-(pyrrolidin-1-ylmethyl)benzyl)pyrido[4,3-d]pyrimidin-5(6H)-one], in that order: 81 nM and 58 nM.
For `CCC[C@@H](CO)Nc1nc(N)nc2ccn(Cc3ccc(CN4CCN(CCCCCCN)CC4)cc3OC)c(=O)c12` [Compound I-217, (S)-2-amino-6-(4-((4-(6-aminohexyl)piperazin-1-yl)methyl)-2-methoxybenzyl)-4-((1-h hydroxypentan-2-yl)amino)pyrido[4,3-d]pyrimidin-5(6H)-one], in that order: 100 nM and 35 nM.
For `CCCC[C@@H](CO)Nc1nc(N)nc2ccn(Cc3ccc(CN4CCCC4)cc3OC)c(=O)c12` [Compound I-164, (S)-2-amino-4-((1-hydroxyhexan-2-yl)amino)-6-(2-methoxy-4-(pyrrolidin-1-ylmethyl)benzyl)pyrido[4,3-d]pyrimidin-5(6H)-one], the EC50 (as a rule, the midpoint of the concentration-response curve) on human TLR7 came to 40 nM; at human TLR8, 30 nM.
With `CCC[C@@H](CO)Nc1nc(N)nc2ccn(Cc3ccc(CNC)cc3OC)c(=O)c12` [Compound I-214, (S)-2-amino-4-((1-hydroxypentan-2-yl)amino)-6-(2-methoxy-4-((methylamino)methyl)benzyl)pyrido[4,3-d]pyrimidin-5(6H)-one], the results for the half-maximal effective concentration (EC50) on human TLR7 and at human TLR8 were 86 nM and 3 nM, respectively.
For `CCC[C@@H](C)Nc1nc(N)nc2ccn(Cc3ccc(CN4CCCC4)cc3Cl)c(=O)c12` [Compound I-152, (R)-2-amino-6-(2-chloro-4-(pyrrolidin-1-ylmethyl)benzyl)-4-(pentan-2-ylamino)pyrido[4,3-d]pyrimidin-5(6H)-one], in that order: 80 nM and 110 nM.
For `CCC[C@@H](C)Nc1nc(N)nc2ccn(Cc3ccc(CN4CCNCC4)cc3OC)c(=O)c12` [Compound I-184, (R)-2-amino-6-(2-methoxy-4-(piperazin-1-ylmethyl)benzyl)-4-(pentan-2-ylamino)pyrido[4,3-d]pyrimidin-5(6H)-one], in that order: 96 nM and 107 nM.
For `CCC[C@@H](C)Nc1nc(N)nc2ccn(Cc3ccc(CN(C)CCO)cc3OC)c(=O)c12` [Compound I-160, (R)-2-amino-6-(4-(((2-hydroxyethyl)(methyl)amino)methyl)-2-methoxybenzyl)-4-(pentan-2-ylamino)pyrido[4,3-d]pyrimidin-5(6H)-one], in that order: 20 nM and 20 nM.
Consider `CCC[C@@H](CO)Nc1nc(N)nc2ccn(Cc3ccc(CN(C)C)cc3OC)c(=O)c12` [Compound I-195, (S)-2-amino-6-(4-((dimethylamino)methyl)-2-methoxybenzyl)-4-((1-hydroxypentan-2-yl)amino)pyrido[4,3-d]pyrimidin-5(6H)-one], for which the EC50 on human TLR7 was determined as 31 nM; at human TLR8 it was 1 nM.
Take `CCCC(CCO)Nc1nc(N)nc2ccn(Cc3ccc(CN4CCCC4)cc3)c(=O)c12` (stereo not shown) [Compound I-95, 2-amino-4-((1-hydroxyhexan-3-yl)amino)-6-(4-(pyrrolidin-1-ylmethyl)benzyl)pyrido[4,3-d]pyrimidin-5(6H)-one]: the EC50 turned out to be 65 nM on human TLR7 and 46 nM at human TLR8.
Regarding `CCCCNc1nc(N)nc2ccn(Cc3ccc(CN(C)C)cc3)c(=O)c12` [Compound I-35, 2-amino-4-(butylamino)-6-(4-((dimethylamino)methyl)benzyl)pyrido[4,3-d]pyrimidin-5(6H)-one], the EC50 was found to be 87 nM at human TLR7 and 58 nM at human TLR8.
For `CCCC(CCC)Nc1nc(N)nc2ccn(Cc3ccc(C(=O)N4CCNCC4)cc3OC)c(=O)c12` [Compound I-132, 2-amino-4-(heptan-4-ylamino)-6-(2-methoxy-4-(piperazine-1-carbonyl)benzyl)pyrido[4,3-d]pyrimidin-5(6H)-one], in that order: 84 nM and 660 nM.
For `CCC[C@@H](COC)Nc1nc(N)nc2ccn(Cc3ccc(CN4CCCC4)cc3OC)c(=O)c12` [Compound I-163, (S)-2-amino-6-(2-methoxy-4-(pyrrolidin-1-ylmethyl)benzyl)-4-((1-methoxypentan-2-yl)amino)pyrido[4,3-d]pyrimidin-5(6H)-one], in that order: 30 nM and 70 nM.
Take `CCCCNc1nc(N)nc2cc(C)n(Cc3ccc(CN4CCCC4)cc3)c(=O)c12` [Compound I-187, 2-amino-4-(butylamino)-7-methyl-6-(4-(pyrrolidin-1-ylmethyl)benzyl)pyrido[4,3-d]pyrimidin-5(6H)-one]: the EC50 at human TLR7 worked out at 145 nM; at human TLR8 it was 64 nM.
For `CCC[C@@H](C)Nc1nc(N)nc2ccn(Cc3ccc(CN(CCC)CCO)cc3OC)c(=O)c12` [Compound I-165, (R)-2-amino-6-(4-(((2-hydroxyethyl)(propyl)amino)methyl)-2-methoxybenzyl)-4-(pentan-2-ylamino)pyrido[4,3-d]pyrimidin-5(6H)-one], in that order: 40 nM and 60 nM.
For `CCC[C@@H](C)Nc1nc(N)nc2ccn(Cc3ccc(CN4CCN(CCO)CC4)cc3)c(=O)c12` [Compound I-148, (R)-2-amino-6-(4-((4-(2-hydroxyethyl)piperazin-1-yl)methyl)benzyl)-4-(pentan-2-ylamino)pyrido[4,3-d]pyrimidin-5(6H)-one], in that order: 40 nM and 40 nM.
